The assay addresses recombinant human UAE (Homo sapiens (Human), UniProt P22314). As to the kind of experiment: Ubiquitin Activating Enzyme (UAE) HTRF Assay. The settings on record: read-out: % inhibition @0.111 μM. (In general: In TR-FRET formats the signal depends on donor and acceptor labels being close together.)

Each structure is given as a SMILES string.

For orientation: inhibition means the change of the read-out against control, counted positive when it falls.

Sequence of recombinant human UAE (P22314 whole entry): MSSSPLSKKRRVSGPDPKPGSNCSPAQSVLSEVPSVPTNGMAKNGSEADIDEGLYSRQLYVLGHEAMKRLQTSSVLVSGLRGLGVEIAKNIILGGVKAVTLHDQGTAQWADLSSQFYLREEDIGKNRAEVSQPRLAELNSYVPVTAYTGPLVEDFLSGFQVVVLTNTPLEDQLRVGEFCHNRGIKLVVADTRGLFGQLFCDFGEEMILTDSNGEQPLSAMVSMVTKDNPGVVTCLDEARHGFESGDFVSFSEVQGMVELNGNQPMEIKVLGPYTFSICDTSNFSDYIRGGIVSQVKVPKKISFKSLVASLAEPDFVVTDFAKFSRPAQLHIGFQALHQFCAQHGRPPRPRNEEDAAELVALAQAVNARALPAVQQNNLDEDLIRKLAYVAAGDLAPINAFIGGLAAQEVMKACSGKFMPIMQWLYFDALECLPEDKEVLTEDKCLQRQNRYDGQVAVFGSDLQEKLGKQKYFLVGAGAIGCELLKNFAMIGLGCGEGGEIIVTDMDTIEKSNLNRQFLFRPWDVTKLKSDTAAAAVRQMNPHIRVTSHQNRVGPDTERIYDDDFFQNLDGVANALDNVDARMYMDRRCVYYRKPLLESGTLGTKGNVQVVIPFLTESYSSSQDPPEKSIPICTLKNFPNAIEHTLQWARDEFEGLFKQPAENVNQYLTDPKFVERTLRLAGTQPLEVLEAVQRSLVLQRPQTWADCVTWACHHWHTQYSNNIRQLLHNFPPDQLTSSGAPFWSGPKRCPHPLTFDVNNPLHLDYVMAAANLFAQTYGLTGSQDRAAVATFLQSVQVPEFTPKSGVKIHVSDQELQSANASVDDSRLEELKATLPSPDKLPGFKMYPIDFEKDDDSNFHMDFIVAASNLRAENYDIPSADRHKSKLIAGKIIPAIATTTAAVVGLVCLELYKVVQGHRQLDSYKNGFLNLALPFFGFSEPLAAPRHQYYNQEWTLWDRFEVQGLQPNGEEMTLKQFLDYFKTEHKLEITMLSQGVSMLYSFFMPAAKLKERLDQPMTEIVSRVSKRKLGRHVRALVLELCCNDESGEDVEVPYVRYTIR
Method: After incubation for 120 minutes, quantification of the FRET is performed on the Pherostar (BMG).
For compounds whose values are marked with an asterisk (*), mouse UAE was used. For all other compounds, human UAE was used.

Turning to `NS(=O)(=O)OC[C@H]1C[C@@H](Nc2cc(Cl)nc3cc(-c4cccc5ccccc45)nn23)[C@H](O)[C@@H]1O` (relative stereo) [Compound I-009, (rac)-((1R,2R,3S,4R)-4-{[5-chloro-2-(1-naphthyl)pyrazolo[1,5-a]pyrimidin-7-yl]amino}-2,3-dihydroxycyclopentyl)methyl rel-sulfamate], the inhibition at 0.111 µM stood at 42%.

For `CCOC(C)(C)c1cccc(-c2cc3nccc(N[C@@H]4C[C@H](COS(N)(=O)=O)[C@@H](O)[C@H]4O)n3n2)c1` (relative stereo) [Compound I-084, (rac)-((1R,2R,3S,4R)-4-(2-(3-(2-ethoxypropan-2-yl)phenyl)pyrazolo[1,5-a]pyrimidin-7-ylamino)-2,3-dihydroxycyclopentyl)methyl rel-sulfamate], the inhibition at 0.111 µM amounted to 100%.

`COc1ccc(SC(F)(F)F)cc1-c1cc2nccc(N[C@@H]3C[C@H](COS(N)(=O)=O)[C@@H](O)[C@H]3O)n2n1` [Compound I-120, (s.e.)-((1R,2R,3S,4R)-2,3-dihydroxy-4-(2-(2-methoxy-5-(trifluoromethylthio)-phenyl)pyrazolo[1,5-a]pyrimidin-7-ylamino)cyclopentyl)methyl sulfamate]: the inhibition at 0.111 µM is 100%. As to `NS(=O)(=O)OC[C@H]1C[C@@H](Nc2ccnc3cc(-c4ccc5[nH]c6ccccc6c5c4)nn23)[C@H](O)[C@@H]1O` (relative stereo) [Compound I-037, (rac)-[(1R,2R,3S,4R)-4-{[2-(9H-carbazol-3-yl)pyrazolo[1,5-a]pyrimidin-7-yl]amino}-2,3-dihydroxycyclopentyl]methyl rel-sulfamate], the inhibition at 0.111 µM is 100%.

Regarding `COc1ccc(OC(F)(F)F)cc1-c1cc2nccc(N[C@@H]3C[C@H](COS(N)(=O)=O)[C@@H](O)[C@H]3O)n2n1` [Compound I-102, (s.e)-[(1R,2R,3S,4R)-2,3-dihydroxy-4-({2-[2-methoxy-5-(trifluoromethoxy)-phenyl]pyrazolo[1,5-a]pyrimidin-7-yl}amino)cyclopentyl]methyl sulfamate], the inhibition at 0.111 µM was determined as 100%.

With `NS(=O)(=O)OC[C@H]1C[C@@H](Nc2ccnc3cc(-c4cccc5cc(C(F)F)ccc45)nn23)[C@H](O)[C@@H]1O` [Compound I-111, (s.e.)-((1R,2R,3S,4R)-4-(2-(6-(difluoromethyl)naphthalen-1-yl)pyrazolo[1,5-a]pyrimidin-7-ylamino)-2,3-dihydroxycyclopentyl)methyl sulfamate], the inhibition at 0.111 µM worked out at 100%. For `NS(=O)(=O)OC[C@H]1C[C@@H](Nc2ccnc3cc(-c4cnc(-c5ccccc5)o4)nn23)[C@H](O)[C@@H]1O` (relative stereo) [Compound I-067, (rac)-[(1R,2R,3S,4R)-2,3-dihydroxy-4-{[2-(2-phenyl-1,3-oxazol-5-yl)pyrazolo[1,5-a]pyrimidin-7-yl]amino}cyclopentyl]methyl rel-sulfamate], the inhibition at 0.111 µM was 100%. Consider `NS(=O)(=O)OC[C@H]1C[C@@H](Nc2ccnc3cc(-c4nc(-c5ccccc5)cs4)nn23)[C@H](O)[C@@H]1O` (relative stereo) [Compound I-031, (rac)-[(1R,2R,3S,4R)-2,3-dihydroxy-4-{[2-(4-phenyl-1,3-thiazol-2-yl)pyrazolo[1,5-a]pyrimidin-7-yl]amino}cyclopentyl]methyl rel-sulfamate], for which the inhibition at 0.111 µM worked out at 100%. The same measure for `NS(=O)(=O)OC[C@H]1C[C@@H](Nc2c(Cl)cnc3c(Cl)c(-c4cccc(SC(F)(F)F)c4)nn23)[C@H](O)[C@@H]1O` [Compound I-124, (s.e.)-{(1R,2R,3S,4R)-4-[(3,6-dichloro-2-{3-[(trifluoromethyl)sulfanyl]phenyl}pyrazolo[1,5-a]pyrimidin-7-yl)amino]-2,3-dihydroxycyclopentyl}methyl sulfamate]: 20%.

`COc1cc(F)ccc1-c1cc2nccc(N[C@@H]3C[C@H](COS(N)(=O)=O)[C@@H](O)[C@H]3O)n2n1` (relative stereo) [Compound I-070, (rac)-((1R,2R,3S,4R)-4-(2-(4-fluoro-2-methoxyphenyl)pyrazolo[1,5-a]pyrimidin-7-ylamino)-2,3-dihydroxycyclopentyl)methyl rel-sulfamate]: the inhibition at 0.111 µM was determined as 99%. The same measure for `CCc1ccc2sc(-c3cc4nccc(N[C@@H]5C[C@H](COS(N)(=O)=O)[C@@H](O)[C@H]5O)n4n3)cc2c1` (relative stereo) [Compound I-095, (rac)-((1R,2R,3S,4R)-4-(2-(5-ethylbenzo[b]thiophen-2-yl)pyrazolo[1,5-a]pyrimidin-7-ylamino)-2,3-dihydroxycyclopentyl)methyl rel-sulfamate]: 70%; for `NS(=O)(=O)OC[C@H]1C[C@@H](Nc2ccnc3cc(-c4cccc(Br)c4)nn23)[C@H](O)[C@@H]1O` (relative stereo) [Compound I-028, (rac)-((1R,2R,3S,4R)-4-((2-(3-Bromophenyl)pyrazolo[1,5-a]pyrimidin-7-yl)amino)-2,3-dihydroxycyclopentyl)methyl rel-sulfamate]: 99%. Regarding `NS(=O)(=O)OC[C@H]1C[C@@H](Nc2ccnc3cc(-c4cccc5cnccc45)nn23)[C@H](O)[C@@H]1O` (relative stereo) [Compound I-027, (rac)-((1R,2R,3S,4R)-2,3-dihydroxy-4-(2-(isoquinolin-5-yl)pyrazolo[1,5-a]pyrimidin-7-ylamino)cyclopentyl)methyl rel-sulfamate], the inhibition at 0.111 µM was found to be 100%. Take `COc1ccc(-c2cc3nc(Cl)cc(N[C@@H]4C[C@H](COS(N)(=O)=O)[C@@H](O)[C@H]4O)n3n2)cc1` (relative stereo) [Compound I-014, (rac)-[(1R,2R,3S,4R)-4-{[5-chloro-2-(4-methoxyphenyl)pyrazolo[1,5-a]pyrimidin-7-yl]amino}-2,3-dihydroxycyclopentyl]methyl rel-sulfamate]: the inhibition at 0.111 µM is 30%. Take `NS(=O)(=O)OC[C@H]1C[C@@H](Nc2ccnc3cc(-c4cccc(N5CCCC5)c4)nn23)[C@H](O)[C@@H]1O` (relative stereo) [Compound I-046, (rac)-((1R,2R,3S,4R)-2,3-dihydroxy-4-(2-(3-(pyrrolidin-1-yl)phenyl)pyrazolo[1,5-a]pyrimidin-7-ylamino)cyclopentyl)methyl rel-sulfamate]: the inhibition at 0.111 µM was found to be 100%. The same measure for `NS(=O)(=O)OC[C@H]1C[C@@H](Nc2ccnc3cc(-c4cccc5cccnc45)nn23)[C@H](O)[C@@H]1O` (relative stereo) [Compound I-017, (rac)-((1R,2R,3S,4R)-2,3-Dihydroxy-4-((2-(quinolin-8-yl)pyrazolo[1,5-a]pyrimidin-7-yl)amino)cyclopentyl)methyl rel-sulfamate]: 100%; for `NS(=O)(=O)OC[C@H]1C[C@@H](Nc2ccnc3cc(-c4ccc(OC(F)F)c5ccccc45)nn23)[C@H](O)[C@@H]1O` [Compound I-112, (s.e.)-((1R,2R,3S,4R)-4-(2-(4-(difluoromethoxy)naphthalen-1-yl)pyrazolo[1,5-a]pyrimidin-7-ylamino)-2,3-dihydroxycyclopentyl)methyl sulfamate]: 100%.

The values are drawn from US10202389B2, “Pyrazolopyrimidinyl inhibitors of ubiquitin-activating enzyme” (Millennium Pharmaceuticals, Inc., priority 2012, dated 2019).
